Test results published in patent US7741352B2, “KCNQ channel modulating compounds and their pharmaceutical use” (Neurosearch A/S, priority 2003, dated 2010).

Experiments:
human KCNQ4 channel = molecular target: T1, human KCNQ4 channel (Homo sapiens, UniProt P56696); assay: Electrophysiological determination: whole-cell patch-clamp of voltage-activated KCNQ current; type: cell-based; conditions: HEK293 cell line stably expressing human KCNQ4; for IK (%): current at end of step to −30 mV, baseline current defined as 100%, test concentration not given; for activator or inhibitor of the KCNQ channel (increase or decrease in current): whole-cell patch clamp
T1 construct: expressed in transfected cells
Experimental: KCNQ channels constitute a subfamily of the voltage-dependent potassium (K) channels. Five members of this family have been cloned (1-5) and they have been heterologously expressed in various homo- and heteromeric combinations. The ionic current through the channels is recorded in the whole-cell mode of the patch-clamp technique. The KCNQ currents are activated by a depolarising voltage step and it is investigated whether the test compound change the amount of basal current. Compounds that induce an increase in the voltage-activated current are called activators and the effect obtained by these activators is described as a percentage increase in baseline current at a given concentration.
A HEK293 cell line stably expressing the human KCNQ4 channel was obtained as described by Søgaard et al. [Søgaard R, Ljungstrøm T. Pedersen K A, Olesen S-P, Jensen B S: KCNQ4 channels expressed in mammalian cells: Functional characteristics and pharmacology; Am. J. Phys. 2000 280 C859-C866].
Experiments are carried out on a patch-clamp set-up. Cells plated on cover slips (Ø3.5 mm) are placed in a 15 μl perfusion chamber (flow rate ˜1 ml/min) mounted on an IMT-2 or IX-70 microscope equipped with Nomarski or Hoffmann optics. The microscope is placed on a vibration-free table in a grounded Faraday cage. All experiments are performed at room temperature (20-22° C.). The EPC-9 patch-clamp amplifier (HEKA-electronics, Lambrecht, Germany) is connected to a Macintosh computer via an ITC16 interface. Data are stored directly on the hard disk and analysed using IGOR software (Wavemetrics, Lake Oswego, USA).
The whole-cell configuration of the patch clamp technique is applied. In short: The Up of a borosilicate pipette (resistance 24 MΩ) is gently (remote control system) placed on the cell membrane. Light suction results in a giga seal (pipette resistance increases to more than 1 GΩ) and the cell membrane is then ruptured by more powerful suction. Cell capacitance is electronically compensated and the resistance between the pipette and the cell interior (the series resistance, Rs) is measured and compensated for. Usually the cell capacitance ranges from 5 to 20 pF (depending on cell size) and the series resistance is in the range 3 to 6 MΩ. Rs- as well as capacitance compensation are updated during the experiments (before each stimulus). All experiments with drifting Rs-values are discharged. Leak-subtractions are not performed but the leak is estimated by a hyper-polarisation voltage step.
The extracellular (bath) solution contains 144 mM NaCl, 2 mM CaCl2, 1 mM MgCl2, 10 mM HEPES (pH=7.4). […] By use of the program EqCal the concentration of free Ca^2+ have been calculated to 100 nM, the free Mg^2+ is 1 mM, and MgATP is 1.45 mM. […]

melting point | IK (%) (human KCNQ4 channel) | activator or inhibitor of the KCNQ channel (increase or decrease in current) (human KCNQ4 channel) | SMILES
187 to 188 °C |  |  | Nc1ccc(Oc2ccc(C(=O)O)c(O)c2)cc1 [Compound 8-2, 4-(4-Amino-phenoxy)-2-hydroxy-benzoic acid]
123 to 124 °C |  |  | CCCCCCCCOc1ccc(C(N)=O)c(O)c1 [Compound 12-4, 2-Hydroxy-4-octyloxy-benzamide]
205 to 208 °C (dec.) |  |  | Nc1cccc(-c2cccc(COc3ccc(C(=O)O)c(O)c3)c2)c1 [Compound 3-24, 4-(3′-Amino-biphenyl-3-ylmethoxy)-2-hydroxy-benzoic acid]
179 to 181 °C |  |  | COc1cc(NC(=O)c2ccc(-c3ccccc3)cc2)ccc1C(=O)O [Compound 7-1]
211 to 215 °C (dec.) |  |  | O=C(O)c1ccc(OCc2cccc(-c3ccc(Cl)c(Cl)c3)c2)cc1O [Compound 3-30, 4-(3′,4′-Dichloro-biphenyl-3-ylmethoxy)-2-hydroxy-benzoic acid]
209 to 212 °C (dec.) |  |  | O=C(O)c1ccc(OCc2ccc(-c3cccc(O)c3)cc2)cc1O [Compound 3-8, 2-Hydroxy-4-(3′-hydroxy-biphenyl-4-ylmethoxy)-benzoic acid]
196 to 198 °C |  |  | O=C(O)c1ccc(OCc2ccc(F)cc2)cc1O [Compound 1-18, 4-(4-Fluoro-benzyloxy)-2-hydroxy-benzoic acid]
194 °C (dec.) |  |  | O=C(O)c1ccc(OCCCN2CCCCC2)cc1O [Compound 1-21, 2-Hydroxy-4-(3-piperidin-1-yl-propoxy)-benzoic acid]
197 to 199 °C (dec.) |  |  | COc1cccc(-c2ccc(COc3ccc(C(=O)O)c(O)c3)cc2)c1 [Compound 3-9, 2-Hydroxy-4-(3′methoxy-biphenyl-4-ylmethoxy)-benzoic acid]
201 to 203 °C |  |  | NNC(=O)c1ccc(OCc2cccc(Br)c2)cc1O [Compound 2-7, 4-(3-Bromo-benzyloxy)-2-hydroxy-benzoic acid hydrazide]
244 to 248 °C (dec.) |  |  | CC(=O)c1ccc(-c2ccc(COc3ccc(C(=O)O)c(O)c3)cc2)s1 [Compound 3-13, 4-[4-(5-Acetyl-thiophen-2-yl)-benzyloxy]-2-hydroxy-benzoic acid]
188 to 193 °C (dec.) |  |  | O=C(O)c1ccc(OCc2cccc(-c3cccc([N+](=O)[O-])c3)c2)cc1O [Compound 3-23, 2-Hydroxy-4-(3′-nitro-biphenyl-3-ylmethoxy)-benzoic acid]
215 to 220 °C (dec.) |  |  | CC(=O)c1cccc(-c2ccc(COc3ccc(C(=O)O)c(O)c3)cc2)c1 [Compound 3-6, 4-(3′-Acetyl-biphenyl-4-ylmethoxy)-2-hydroxy-benzoic acid]
108 to 115 °C (dec.) |  |  | CCCCCCCCOc1ccc(O)c(O)c1 [Compound 10-1, 4-Octyloxy-benzene-1,2-diol]
207 to 210 °C (dec.) | 115% | activators | Nc1cccc(-c2ccc(COc3ccc(C(=O)O)c(O)c3)cc2)c1 [Compound 3-11, 4-(3′-Amino-biphenyl-4-ylmethoxy)-2-hydroxy-benzoic acid]
110 to 112 °C |  |  | COCCOCCOc1ccc(C(=O)O)c(O)c1 [Compound 1-4, 2-Hydroxy-4-[2-(2-methoxy-ethoxy]-ethoxy]-benzoic acid]

melting point | IK (%) (human KCNQ4 channel) | activator or inhibitor of the KCNQ channel (increase or decrease in current) (human KCNQ4 channel) | SMILES
155 to 170 °C (dec.) |  |  | N#Cc1cccc(-c2cccc(COc3ccc(C(=O)O)c(O)c3)c2)c1 [Compound 3-41, 4-(3′-Cyano-biphenyl-3-ylmethoxy)-2-hydroxy-benzoic acid]
200 to 204 °C (dec.) |  |  | COc1ccc(-c2ccc(COc3ccc(C(=O)O)c(O)c3)cc2)cc1OC [Compound 3-15, 2-Hydroxy-4-(3′,4′-dimethoxy-biphenyl-4-ylmethoxy)-benzoic acid]
69 to 71 °C |  |  | CCCCCCCCOc1ccc(C#N)c(O)c1 [Compound 12-5, 2-Hydroxy-4-octyloxy-benzonitrile]
201 to 203 °C |  |  | Cc1noc(C)c1COc1ccc(C(=O)O)c(O)c1 [Compound 1-1, 2-Hydroxy-4-(3,5-dimethyl-isoxazol-4-yl-methyloxy)-benzoic acid]
190 °C (dec.) |  |  | O=C(O)c1ccc(Nc2ccccc2[N+](=O)[O-])cc1O [Compound 8-12, 2-Hydroxy-4-(2-nitro-phenylamino)-benzoic acid]
176 to 178 °C (dec.) |  |  | COc1ccc(-c2cccc(COc3ccc(C(=O)O)c(O)c3)c2)c(OC)c1 [Compound 3-42, 4-(2′,4′-Dimethoxy-biphenyl-3-ylmethoxy)-2-hydroxy-benzoic acid]
> 200 °C (dec.) |  |  | O=C(O)c1ccc(Oc2ccc(-c3ccccc3)cc2[N+](=O)[O-])cc1O [Compound 8-4, 2-Hydroxy-4-(3-nitro-biphenyl-4-yloxy)-benzoic acid]
156 to 164 °C (dec.) |  |  | O=C(O)c1ccc(OCc2cccc(-c3cccc4ccccc34)c2)cc1O [Compound 3-37, 2-Hydroxy-4-(3-naphthalen-1-yl-benzyloxy)-benzoic acid]
161 to 162 °C |  |  | O=C(O)c1ccc(NCc2ccc(OC(F)F)cc2)cc1O [Compound 6-2, 4-(4-Difluoromethoxy-benzylamino)-2-hydroxy-benzoic acid]
195 to 197 °C |  |  | O=C(O)c1ccc(Oc2ccc([N+](=O)[O-])cc2)cc1O [Compound 8-1, 2-Hydroxy-4-(4-nitro-phenoxy)-benzoic acid]
181 to 183 °C (dec.) |  |  | Cn1ccc2cc(-c3cccc(COc4ccc(C(=O)O)c(O)c4)c3)ccc21 [Compound 3-33, 2-Hydroxy-4-[3-(1-methyl-1H-indol-5-yl)-benzyloxy]-benzoic acid]
279 to 284 °C (dec.) | 115% | activators | O=C(O)c1ccc(-c2ccc(COc3ccc(C(=O)O)c(O)c3)cc2)cc1 [Compound 3-17, 4′-(4-Carboxy-3-hydroxy-phenoxymethyl)-biphenyl-4-carboxylic acid]
197 °C (dec.) |  |  | O=C(O)c1ccc(OCc2ccc3ccccc3n2)cc1O [Compound 1-19, 2-Hydroxy-4-(quinolin-2-ylmethoxy)-benzoic acid]
102 to 111 °C |  |  | C=CCCCCCCOc1ccc(C(=O)O)c(O)c1 [Compound 1-10, 2-Hydroxy-4-oct-7-enyloxy-benzoic acid]
252 to 257 °C (dec.) |  |  | O=C(O)c1ccc(OCc2ccc(-c3ccncc3)cc2)cc1O [Compound 3-2, 2-Hydroxy-4-(4-pyridin-4-yl-benzyloxy)-benzoic acid]
